Results: ChEMBL document CHEMBL4052645, “Discovery of potent and efficacious pyrrolopyridazines as dual JAK1/3 inhibitors” (Bioorg Med Chem Lett, 2017)

Experiments:
[1] = biological target: T1, Tyrosine-protein kinase JAK3 (Homo sapiens, UniProt P52333); assay: Inhibition of JAK3 (unknown origin) using CSKtide as substrate after 30 mins in presence of [gamma33P]ATP by liquid scintillation counting method
T1 sequence (P52333 whole entry): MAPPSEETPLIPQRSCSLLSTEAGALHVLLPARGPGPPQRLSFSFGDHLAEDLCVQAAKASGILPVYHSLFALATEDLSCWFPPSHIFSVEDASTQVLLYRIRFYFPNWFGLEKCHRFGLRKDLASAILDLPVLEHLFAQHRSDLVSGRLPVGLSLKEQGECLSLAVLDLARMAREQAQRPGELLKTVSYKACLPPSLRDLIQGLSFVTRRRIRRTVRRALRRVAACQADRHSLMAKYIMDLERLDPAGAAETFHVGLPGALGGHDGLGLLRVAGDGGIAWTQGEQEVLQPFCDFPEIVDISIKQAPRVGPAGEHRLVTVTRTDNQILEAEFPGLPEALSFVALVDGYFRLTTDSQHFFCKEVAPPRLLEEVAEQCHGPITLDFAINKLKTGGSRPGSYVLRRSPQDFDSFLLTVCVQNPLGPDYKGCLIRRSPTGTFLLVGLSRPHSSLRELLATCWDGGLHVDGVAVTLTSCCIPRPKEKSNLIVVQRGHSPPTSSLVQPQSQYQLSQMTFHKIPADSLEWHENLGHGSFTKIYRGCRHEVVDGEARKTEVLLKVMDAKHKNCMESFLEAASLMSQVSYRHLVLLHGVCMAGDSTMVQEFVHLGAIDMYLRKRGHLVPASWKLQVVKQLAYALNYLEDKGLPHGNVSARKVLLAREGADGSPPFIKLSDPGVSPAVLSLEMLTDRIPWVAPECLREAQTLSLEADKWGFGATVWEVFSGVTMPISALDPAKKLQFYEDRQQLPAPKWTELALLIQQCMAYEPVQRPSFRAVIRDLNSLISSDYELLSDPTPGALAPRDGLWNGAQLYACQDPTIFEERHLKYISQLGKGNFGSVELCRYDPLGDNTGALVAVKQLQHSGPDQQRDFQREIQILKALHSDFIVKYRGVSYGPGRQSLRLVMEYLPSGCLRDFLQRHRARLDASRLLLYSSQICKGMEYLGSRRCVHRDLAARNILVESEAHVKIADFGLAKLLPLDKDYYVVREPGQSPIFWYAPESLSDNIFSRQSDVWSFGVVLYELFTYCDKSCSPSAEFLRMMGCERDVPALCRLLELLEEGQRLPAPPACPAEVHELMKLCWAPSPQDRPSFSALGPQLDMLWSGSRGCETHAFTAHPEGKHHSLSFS

[2] = biological target: Myotonin-protein kinase (Homo sapiens) (UniProt Q09013); assay: Inhibition of human DMPK1 (V47 to N415 residues) expressed in bacterial expression system assessed as residual activity at 50 nM by KINOMEscan assay relative to control
Chain of Myotonin-protein kinase (Homo sapiens) (Q09013 whole entry, the tested form may be a part): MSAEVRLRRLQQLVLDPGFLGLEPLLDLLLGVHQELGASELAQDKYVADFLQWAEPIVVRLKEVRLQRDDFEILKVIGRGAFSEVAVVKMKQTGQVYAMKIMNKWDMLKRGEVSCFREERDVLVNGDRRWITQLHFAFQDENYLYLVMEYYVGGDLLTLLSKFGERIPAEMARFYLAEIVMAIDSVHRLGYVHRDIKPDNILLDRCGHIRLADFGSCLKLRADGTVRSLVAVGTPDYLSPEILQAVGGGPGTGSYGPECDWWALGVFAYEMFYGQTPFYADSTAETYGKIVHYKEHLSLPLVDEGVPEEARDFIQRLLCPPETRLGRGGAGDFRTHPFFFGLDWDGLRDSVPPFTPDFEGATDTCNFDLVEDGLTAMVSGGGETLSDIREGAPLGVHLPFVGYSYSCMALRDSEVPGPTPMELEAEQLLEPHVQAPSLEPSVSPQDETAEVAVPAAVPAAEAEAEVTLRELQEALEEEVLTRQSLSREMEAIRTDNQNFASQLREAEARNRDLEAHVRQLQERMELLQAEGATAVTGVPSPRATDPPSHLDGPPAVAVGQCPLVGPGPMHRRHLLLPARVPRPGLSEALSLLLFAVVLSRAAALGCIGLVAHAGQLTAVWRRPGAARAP

[3] = biological target: Mitogen-activated protein kinase kinase kinase kinase 3 (Homo sapiens) (UniProt Q8IVH8); assay: Inhibition of wild-type human partial length KHS2 (M1 to D301 residues) expressed in bacterial expression system assessed as residual activity at 50 nM by Kinomescan method relative to control
Chain of Mitogen-activated protein kinase kinase kinase kinase 3 (Homo sapiens) (Q8IVH8 whole entry, the tested form may be a part): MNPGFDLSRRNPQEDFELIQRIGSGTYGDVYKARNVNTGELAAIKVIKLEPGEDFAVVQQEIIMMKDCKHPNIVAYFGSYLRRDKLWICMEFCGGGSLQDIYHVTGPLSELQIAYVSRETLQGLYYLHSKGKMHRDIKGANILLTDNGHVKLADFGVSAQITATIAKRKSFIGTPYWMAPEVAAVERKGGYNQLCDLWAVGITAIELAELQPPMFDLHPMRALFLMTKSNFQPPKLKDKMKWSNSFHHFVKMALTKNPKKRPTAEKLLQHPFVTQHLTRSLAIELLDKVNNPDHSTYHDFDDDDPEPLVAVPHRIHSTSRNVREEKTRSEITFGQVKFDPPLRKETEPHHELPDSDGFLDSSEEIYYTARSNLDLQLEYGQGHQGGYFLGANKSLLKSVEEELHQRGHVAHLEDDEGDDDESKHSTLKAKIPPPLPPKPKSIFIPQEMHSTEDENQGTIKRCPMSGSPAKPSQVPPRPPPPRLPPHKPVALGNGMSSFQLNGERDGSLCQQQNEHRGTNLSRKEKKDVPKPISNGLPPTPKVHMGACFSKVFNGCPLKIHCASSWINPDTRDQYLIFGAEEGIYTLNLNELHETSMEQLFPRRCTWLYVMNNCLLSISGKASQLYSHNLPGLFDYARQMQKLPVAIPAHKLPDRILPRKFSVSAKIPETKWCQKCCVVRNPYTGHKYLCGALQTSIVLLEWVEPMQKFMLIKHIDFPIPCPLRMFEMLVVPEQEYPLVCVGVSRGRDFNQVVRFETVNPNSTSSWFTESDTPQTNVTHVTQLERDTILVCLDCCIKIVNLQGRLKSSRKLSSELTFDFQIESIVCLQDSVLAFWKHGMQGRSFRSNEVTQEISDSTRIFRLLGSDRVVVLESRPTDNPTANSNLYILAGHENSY

[4] = biological target: Serine/threonine-protein kinase MRCK beta (Homo sapiens) (UniProt Q9Y5S2); assay: Inhibition of human MRCKB (L56 to S417 residues) expressed in bacterial expression system assessed as residual activity at 50 nM by KINOMEscan assay relative to control
[5] = biological target: SRSF protein kinase 3 (Homo sapiens) (UniProt Q9UPE1); assay: Inhibition of wild-type human partial length MSSK1 (P41 to P567 residues) expressed in bacterial expression system assessed as residual activity at 50 nM by Kinomescan method relative to control
[6] = biological target: Mitogen-activated protein kinase kinase kinase 3 (Homo sapiens) (UniProt Q99759); assay: Inhibition of wild-type human partial length MAP3K3 (E320 to Y626 residues) expressed in mammalian expression system assessed as residual activity at 50 nM by Kinomescan method relative to control
Chain of Mitogen-activated protein kinase kinase kinase 3 (Homo sapiens) (Q99759 whole entry, the tested form may be a part): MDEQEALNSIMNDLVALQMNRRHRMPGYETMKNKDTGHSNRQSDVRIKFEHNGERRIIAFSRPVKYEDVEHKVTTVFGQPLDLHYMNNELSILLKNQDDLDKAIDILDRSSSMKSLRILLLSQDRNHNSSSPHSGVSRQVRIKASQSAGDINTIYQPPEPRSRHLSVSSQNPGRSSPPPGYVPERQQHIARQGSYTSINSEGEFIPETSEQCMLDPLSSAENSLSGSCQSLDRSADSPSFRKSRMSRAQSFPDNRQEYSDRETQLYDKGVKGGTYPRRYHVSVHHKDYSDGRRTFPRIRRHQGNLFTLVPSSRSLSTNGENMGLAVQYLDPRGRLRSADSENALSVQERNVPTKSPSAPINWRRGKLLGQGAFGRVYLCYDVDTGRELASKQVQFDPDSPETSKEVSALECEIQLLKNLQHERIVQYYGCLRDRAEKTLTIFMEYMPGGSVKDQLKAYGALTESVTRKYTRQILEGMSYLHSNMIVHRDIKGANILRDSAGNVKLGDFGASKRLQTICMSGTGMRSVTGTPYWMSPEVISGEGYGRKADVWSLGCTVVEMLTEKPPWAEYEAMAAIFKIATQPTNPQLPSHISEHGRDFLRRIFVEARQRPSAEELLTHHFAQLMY

[7] = biological target: Inhibitor of nuclear factor kappa-B kinase subunit beta (Homo sapiens) (UniProt O14920); assay: Inhibition of wild-type human full length IKK-beta (M1 to S756 residues) expressed in mammalian expression system assessed as residual activity at 50 nM by Kinomescan method relative to control
[8] = biological target: Tyrosine-protein kinase SYK (Homo sapiens) (UniProt P43405); assay: Inhibition of wild-type human partial length SYK (D354 to N635 residues) expressed in bacterial expression system assessed as residual activity at 50 nM by Kinomescan method relative to control
[9] = biological target: Focal adhesion kinase 1 (Homo sapiens) (UniProt Q05397); assay: Inhibition of wild-type human partial length FAK (D402 to R696 residues) expressed in bacterial expression system assessed as residual activity at 50 nM by Kinomescan method relative to control
Chain of Focal adhesion kinase 1 (Homo sapiens) (Q05397 2-1052 limits assumed): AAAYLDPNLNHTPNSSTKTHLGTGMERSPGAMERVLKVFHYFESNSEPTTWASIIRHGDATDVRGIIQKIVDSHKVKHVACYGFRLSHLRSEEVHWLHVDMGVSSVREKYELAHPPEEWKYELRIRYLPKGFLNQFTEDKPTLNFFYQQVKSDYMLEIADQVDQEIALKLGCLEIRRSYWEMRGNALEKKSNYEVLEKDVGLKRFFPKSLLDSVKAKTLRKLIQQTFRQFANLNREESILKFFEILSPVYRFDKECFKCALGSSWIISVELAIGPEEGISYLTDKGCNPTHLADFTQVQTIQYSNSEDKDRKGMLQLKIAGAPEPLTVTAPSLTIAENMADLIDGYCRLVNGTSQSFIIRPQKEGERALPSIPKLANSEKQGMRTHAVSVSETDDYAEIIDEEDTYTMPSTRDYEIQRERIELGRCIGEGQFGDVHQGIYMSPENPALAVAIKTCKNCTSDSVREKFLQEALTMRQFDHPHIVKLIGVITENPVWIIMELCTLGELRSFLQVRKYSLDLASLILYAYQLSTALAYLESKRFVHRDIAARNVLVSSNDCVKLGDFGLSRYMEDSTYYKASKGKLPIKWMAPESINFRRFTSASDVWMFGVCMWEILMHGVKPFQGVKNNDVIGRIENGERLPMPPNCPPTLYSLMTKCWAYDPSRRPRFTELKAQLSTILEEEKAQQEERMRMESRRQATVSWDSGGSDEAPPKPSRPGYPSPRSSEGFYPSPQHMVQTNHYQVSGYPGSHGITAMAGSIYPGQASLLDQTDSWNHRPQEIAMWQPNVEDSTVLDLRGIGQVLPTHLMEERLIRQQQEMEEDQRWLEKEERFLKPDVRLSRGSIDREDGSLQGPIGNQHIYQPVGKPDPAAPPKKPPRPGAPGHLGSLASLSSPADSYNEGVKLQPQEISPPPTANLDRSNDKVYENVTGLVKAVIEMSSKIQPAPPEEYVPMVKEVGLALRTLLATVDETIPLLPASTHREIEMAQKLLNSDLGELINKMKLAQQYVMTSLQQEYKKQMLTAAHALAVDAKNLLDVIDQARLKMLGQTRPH

[10] = biological target: Tyrosine-protein kinase CSK (Homo sapiens) (UniProt P41240); assay: Inhibition of wild-type human full length CSK (M1 to L450 residues) expressed in bacterial expression system assessed as residual activity at 50 nM by Kinomescan method relative to control
Chain of Tyrosine-protein kinase CSK (Homo sapiens) (P41240 2-450 limits assumed): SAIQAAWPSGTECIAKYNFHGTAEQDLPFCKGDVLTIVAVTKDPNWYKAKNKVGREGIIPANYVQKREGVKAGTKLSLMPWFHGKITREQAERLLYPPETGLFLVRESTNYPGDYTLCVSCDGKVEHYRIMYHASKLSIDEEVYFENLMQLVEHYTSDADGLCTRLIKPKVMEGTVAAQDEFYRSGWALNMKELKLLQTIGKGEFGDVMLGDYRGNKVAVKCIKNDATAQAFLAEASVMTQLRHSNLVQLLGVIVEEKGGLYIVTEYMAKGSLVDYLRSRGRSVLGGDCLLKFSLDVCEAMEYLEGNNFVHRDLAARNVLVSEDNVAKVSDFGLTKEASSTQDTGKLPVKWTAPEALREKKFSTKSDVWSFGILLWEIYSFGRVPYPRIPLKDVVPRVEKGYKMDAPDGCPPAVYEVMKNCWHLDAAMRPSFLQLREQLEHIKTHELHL

[11] = biological target: Ephrin type-A receptor 7 (Homo sapiens) (UniProt Q15375); assay: Inhibition of wild-type human partial length EPHA7 (Y608 to S912 residues) expressed in bacterial expression system assessed as residual activity at 50 nM by Kinomescan method relative to control
[12] = biological target: Ephrin type-B receptor 3 (Homo sapiens) (UniProt P54753); assay: Inhibition of wild-type human partial length EPHB3 (Q599 to T928 residues) expressed in bacterial expression system assessed as residual activity at 50 nM by Kinomescan method relative to control
Chain of Ephrin type-B receptor 3 (Homo sapiens) (P54753 whole entry, the tested form may be a part): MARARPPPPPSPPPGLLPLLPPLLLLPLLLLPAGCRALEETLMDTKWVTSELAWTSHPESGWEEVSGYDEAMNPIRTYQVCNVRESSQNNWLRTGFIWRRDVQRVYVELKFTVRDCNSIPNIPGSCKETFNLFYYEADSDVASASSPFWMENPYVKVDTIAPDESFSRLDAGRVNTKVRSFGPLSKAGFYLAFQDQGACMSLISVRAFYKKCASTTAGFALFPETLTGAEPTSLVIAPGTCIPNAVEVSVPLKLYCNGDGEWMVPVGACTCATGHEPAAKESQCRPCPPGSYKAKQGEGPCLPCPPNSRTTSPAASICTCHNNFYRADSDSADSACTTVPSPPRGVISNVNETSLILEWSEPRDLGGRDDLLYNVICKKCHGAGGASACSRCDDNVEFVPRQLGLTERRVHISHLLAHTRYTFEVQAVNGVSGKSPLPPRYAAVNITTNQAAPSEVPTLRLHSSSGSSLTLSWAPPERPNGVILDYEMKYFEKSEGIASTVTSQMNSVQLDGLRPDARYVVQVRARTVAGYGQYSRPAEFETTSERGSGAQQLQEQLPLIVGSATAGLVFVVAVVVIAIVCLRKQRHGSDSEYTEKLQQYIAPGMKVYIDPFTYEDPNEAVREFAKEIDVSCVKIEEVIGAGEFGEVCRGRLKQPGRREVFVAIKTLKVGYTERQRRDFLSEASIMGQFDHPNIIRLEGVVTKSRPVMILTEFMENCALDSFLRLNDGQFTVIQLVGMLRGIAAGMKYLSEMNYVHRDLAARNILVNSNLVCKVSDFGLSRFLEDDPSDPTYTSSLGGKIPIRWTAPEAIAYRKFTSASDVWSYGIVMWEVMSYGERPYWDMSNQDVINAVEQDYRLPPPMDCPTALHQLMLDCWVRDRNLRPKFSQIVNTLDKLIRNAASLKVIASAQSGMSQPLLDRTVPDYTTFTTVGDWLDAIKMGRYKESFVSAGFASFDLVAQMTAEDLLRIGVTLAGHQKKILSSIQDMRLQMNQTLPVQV

[13] = biological target: Mitogen-activated protein kinase 4 (Homo sapiens) (UniProt P31152); assay: Inhibition of wild-type human partial length ERK4 (M1 to L365 residues) expressed in bacterial expression system assessed as residual activity at 50 nM by Kinomescan method relative to control
[14] = biological target: Inhibitor of nuclear factor kappa-B kinase subunit epsilon (Homo sapiens) (UniProt Q14164); assay: Inhibition of wild-type human full length IKK-epsilon (M1 to V716 residues) expressed in mammalian expression system assessed as residual activity at 50 nM by Kinomescan method relative to control
[15] = biological target: MAP kinase-activated protein kinase 5 (Homo sapiens) (UniProt Q8IW41); assay: Inhibition of wild-type human partial length MAPKAPK5 (M1 to D322 residues) expressed in mammalian expression system assessed as residual activity at 50 nM by Kinomescan method relative to control
[16] = biological target: Myosin-IIIb (Homo sapiens) (UniProt Q8WXR4); assay: Inhibition of wild-type human partial length MYO3B (M1 to D357 residues) expressed in bacterial expression system assessed as residual activity at 50 nM by Kinomescan method relative to control
[17] = biological target: SNF-related serine/threonine-protein kinase (Homo sapiens) (UniProt Q9NRH2); assay: Inhibition of wild-type human partial length SNRK (M1 to E339 residues) expressed in mammalian expression system assessed as residual activity at 50 nM by Kinomescan method relative to control

SMILES	IC50 [1] [pM]	Activity [2] [%]	Activity [3] [%]	Activity [4] [%]	Activity [5] [%]	Activity [6] [%]	Activity [7] [%]	Activity [8] [%]	Activity [9] [%]	Activity [10] [%]	Activity [11] [%]	Activity [12] [%]	Activity [13] [%]	Activity [14] [%]	Activity [15] [%]	Activity [16] [%]	Activity [17] [%]
COc1ccc(-c2cc3c(N[C@@H]4CC[C@](C)(N)C4(C)C)c(C(N)=O)cnn3c2)cn1	900	38	49	82	100	71	100	91	88	100	100	100	100	91	100	100	92
CC1(C)[C@H](Nc2c(C(N)=O)cnn3cc(-c4ccccc4)cc23)CC[C@]1(C)N	900	2.8	18	29	56	61	73	82	88	100	100	100	100	100	100	100	100
